The supplement of paper PMC10307832

Legend:
Assay in all cases: relative viability (nuclei count vs DMSO), 5 days (fraction); higher = more cells survive
Mirin + Luminespib = compound: N=C1NC(=O)/C(=C/c2ccc(O)cc2)S1 [Mirin] + CCNC(=O)c1noc(-c2cc(C(C)C)c(O)cc2O)c1-c1ccc(CN2CCOCC2)cc1 [Luminespib] (partner 0.01 µM)
In short: (§1)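 Relative viability divides the nuclei count in treated wells by that in vehicle wells. Lung cancer cell lines were seeded in 1536-well plates, dosed by pin tool the next day, and fixed and stained after 5 days in one step with final 0.05% Triton X-100, 1% formaldehyde and 1 ug/ml Hoechst. Dosing was a single drug or a fixed anchor-drug dose plus five library-drug doses (not always all listed) in √10 steps, and values are medians of duplicate plates imaged at 4×.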

Mirin + Pemetrexed = compound: N=C1NC(=O)/C(=C/c2ccc(O)cc2)S1 [Mirin] + Nc1nc2[nH]cc(CCc3ccc(C(=O)N[C@@H](CCC(=O)O)C(=O)O)cc3)c2c(=O)[nH]1 [Pemetrexed] (partner 0.2 µM)
In short: as §1

Mirin + Crizotinib = compound: N=C1NC(=O)/C(=C/c2ccc(O)cc2)S1 [Mirin] + C[C@@H](Oc1cc(-c2cnn(C3CCNCC3)c2)cnc1N)c1c(Cl)ccc(F)c1Cl [Crizotinib] (partner 1 µM)
In short: as §1

[1] = compound: CCn1c(-c2nonc2N)nc2cnc(Oc3cccc(NC(=O)c4ccc(OCCN5CCOCC5)cc4)c3)cc21 + C[C@@H](Oc1cc(-c2cnn(C3CCNCC3)c2)cnc1N)c1c(Cl)ccc(F)c1Cl [Crizotinib] (partner 1 µM)
In short: as §1

## NCI-H1650
Mirin + Luminespib; first compound 0.25 µM
  relative viability: 0.183
Mirin + Luminespib; first compound 0.7906 µM
  relative viability: 0.176
Mirin + Luminespib; first compound 2.5 µM
  relative viability: 0.175
Mirin + Luminespib; first compound 7.906 µM
  relative viability: 0.18
Mirin + Luminespib; first compound 25 µM
  relative viability: 0.179
Mirin + Pemetrexed; first compound 0.25 µM
  relative viability: 0.339
Mirin + Pemetrexed; first compound 0.7906 µM
  relative viability: 0.382
Mirin + Pemetrexed; first compound 2.5 µM
  relative viability: 0.377
Mirin + Pemetrexed; first compound 7.906 µM
  relative viability: 0.324
Mirin + Pemetrexed; first compound 25 µM
  relative viability: 0.359
Mirin + Crizotinib; first compound 0.25 µM
  relative viability: 0.928
Mirin + Crizotinib; first compound 0.7906 µM
  relative viability: 0.959
Mirin + Crizotinib; first compound 2.5 µM
  relative viability: 0.952
Mirin + Crizotinib; first compound 7.906 µM
  relative viability: 1.11
Mirin + Crizotinib; first compound 25 µM
  relative viability: 1.16
[1]; first compound 0.04 µM
  relative viability: 1.12
[1]; first compound 0.1265 µM
  relative viability: 0.957
[1]; first compound 0.4 µM
  relative viability: 0.897
[1]; first compound 1.265 µM
  relative viability: 0.761
[1]; first compound 4 µM
  relative viability: 0.711

## NCI-H1651
Mirin + Luminespib; first compound 0.25 µM
  relative viability: 0.851
Mirin + Luminespib; first compound 0.7906 µM
  relative viability: 0.694
Mirin + Luminespib; first compound 2.5 µM
  relative viability: 0.833
Mirin + Luminespib; first compound 7.906 µM
  relative viability: 0.854
Mirin + Luminespib; first compound 25 µM
  relative viability: 0.784
Mirin + Pemetrexed; first compound 0.25 µM
  relative viability: 0.241
Mirin + Pemetrexed; first compound 0.7906 µM
  relative viability: 0.532
Mirin + Pemetrexed; first compound 2.5 µM
  relative viability: 0.599
Mirin + Pemetrexed; first compound 7.906 µM
  relative viability: 0.532
Mirin + Pemetrexed; first compound 25 µM
  relative viability: 0.612
Mirin + Crizotinib; first compound 0.25 µM
  relative viability: 0.827
Mirin + Crizotinib; first compound 0.7906 µM
  relative viability: 0.875
Mirin + Crizotinib; first compound 2.5 µM
  relative viability: 0.849
Mirin + Crizotinib; first compound 7.906 µM
  relative viability: 0.877
Mirin + Crizotinib; first compound 25 µM
  relative viability: 0.821
[1]; first compound 0.04 µM
  relative viability: 0.871
[1]; first compound 0.1265 µM
  relative viability: 0.98
[1]; first compound 0.4 µM
  relative viability: 0.822
[1]; first compound 1.265 µM
  relative viability: 0.667
[1]; first compound 4 µM
  relative viability: 0.907

## NCI-H1666
Mirin + Luminespib; first compound 0.25 µM
  relative viability: 1.03
Mirin + Luminespib; first compound 0.7906 µM
  relative viability: 1.13
Mirin + Luminespib; first compound 2.5 µM
  relative viability: 1.01
Mirin + Luminespib; first compound 7.906 µM
  relative viability: 0.936
Mirin + Luminespib; first compound 25 µM
  relative viability: 0.949
Mirin + Pemetrexed; first compound 0.25 µM
  relative viability: 0.821
Mirin + Pemetrexed; first compound 0.7906 µM
  relative viability: 0.805
Mirin + Pemetrexed; first compound 2.5 µM
  relative viability: 0.827
Mirin + Pemetrexed; first compound 7.906 µM
  relative viability: 0.875
Mirin + Pemetrexed; first compound 25 µM
  relative viability: 0.841
Mirin + Crizotinib; first compound 0.25 µM
  relative viability: 0.918
Mirin + Crizotinib; first compound 0.7906 µM
  relative viability: 1.02
Mirin + Crizotinib; first compound 2.5 µM
  relative viability: 1.03
Mirin + Crizotinib; first compound 7.906 µM
  relative viability: 0.852
Mirin + Crizotinib; first compound 25 µM
  relative viability: 0.66
[1]; first compound 0.04 µM
  relative viability: 1.21
[1]; first compound 0.1265 µM
  relative viability: 1.2
[1]; first compound 0.4 µM
  relative viability: 1.23
[1]; first compound 1.265 µM
  relative viability: 0.726
[1]; first compound 4 µM
  relative viability: 0.372

## NCI-H1734
Mirin + Luminespib; first compound 0.25 µM
  relative viability: 0.191
Mirin + Luminespib; first compound 0.7906 µM
  relative viability: 0.182
Mirin + Luminespib; first compound 2.5 µM
  relative viability: 0.21
Mirin + Luminespib; first compound 7.906 µM
  relative viability: 0.208
Mirin + Luminespib; first compound 25 µM
  relative viability: 0.217
Mirin + Pemetrexed; first compound 0.25 µM
  relative viability: 0.441
Mirin + Pemetrexed; first compound 0.7906 µM
  relative viability: 0.44
Mirin + Pemetrexed; first compound 2.5 µM
  relative viability: 0.414
Mirin + Pemetrexed; first compound 7.906 µM
  relative viability: 0.355
Mirin + Pemetrexed; first compound 25 µM
  relative viability: 0.346
Mirin + Crizotinib; first compound 0.25 µM
  relative viability: 0.626
Mirin + Crizotinib; first compound 0.7906 µM
  relative viability: 0.669
Mirin + Crizotinib; first compound 2.5 µM
  relative viability: 0.607
Mirin + Crizotinib; first compound 7.906 µM
  relative viability: 0.663
Mirin + Crizotinib; first compound 25 µM
  relative viability: 0.524
[1]; first compound 0.04 µM
  relative viability: 0.671
[1]; first compound 0.1265 µM
  relative viability: 0.669
[1]; first compound 0.4 µM
  relative viability: 0.581
[1]; first compound 1.265 µM
  relative viability: 0.464
[1]; first compound 4 µM
  relative viability: 0.285

## NCI-H1755
Mirin + Luminespib; first compound 0.25 µM
  relative viability: 0.396
Mirin + Luminespib; first compound 0.7906 µM
  relative viability: 0.519
Mirin + Luminespib; first compound 2.5 µM
  relative viability: 0.497
Mirin + Luminespib; first compound 7.906 µM
  relative viability: 0.407
Mirin + Luminespib; first compound 25 µM
  relative viability: 0.358
Mirin + Pemetrexed; first compound 0.25 µM
  relative viability: 0.38
Mirin + Pemetrexed; first compound 0.7906 µM
  relative viability: 0.402
Mirin + Pemetrexed; first compound 2.5 µM
  relative viability: 0.404
Mirin + Pemetrexed; first compound 7.906 µM
  relative viability: 0.348
Mirin + Pemetrexed; first compound 25 µM
  relative viability: 0.384
Mirin + Crizotinib; first compound 0.25 µM
  relative viability: 0.829
Mirin + Crizotinib; first compound 0.7906 µM
  relative viability: 0.892
Mirin + Crizotinib; first compound 2.5 µM
  relative viability: 0.851
Mirin + Crizotinib; first compound 7.906 µM
  relative viability: 0.931
Mirin + Crizotinib; first compound 25 µM
  relative viability: 1.02
[1]; first compound 0.04 µM
  relative viability: 0.911
[1]; first compound 0.1265 µM
  relative viability: 0.94
[1]; first compound 0.4 µM
  relative viability: 0.845
[1]; first compound 1.265 µM
  relative viability: 0.795
[1]; first compound 4 µM
  relative viability: 0.776

## NCI-H1792
Mirin + Luminespib; first compound 0.25 µM
  relative viability: 0.34
Mirin + Luminespib; first compound 0.7906 µM
  relative viability: 0.461
Mirin + Luminespib; first compound 2.5 µM
  relative viability: 0.438
Mirin + Luminespib; first compound 25 µM
  relative viability: 0.423
Mirin + Pemetrexed; first compound 0.25 µM
  relative viability: 0.772
Mirin + Pemetrexed; first compound 0.7906 µM
  relative viability: 0.653
Mirin + Pemetrexed; first compound 2.5 µM
  relative viability: 1.15
Mirin + Pemetrexed; first compound 7.906 µM
  relative viability: 0.708
Mirin + Pemetrexed; first compound 25 µM
  relative viability: 0.844
Mirin + Crizotinib; first compound 0.25 µM
  relative viability: 1.02
Mirin + Crizotinib; first compound 0.7906 µM
  relative viability: 1.01
Mirin + Crizotinib; first compound 2.5 µM
  relative viability: 1.05
Mirin + Crizotinib; first compound 7.906 µM
  relative viability: 0.864
Mirin + Crizotinib; first compound 25 µM
  relative viability: 0.963
[1]; first compound 0.04 µM
  relative viability: 1.08
[1]; first compound 0.1265 µM
  relative viability: 0.99
[1]; first compound 1.265 µM
  relative viability: 0.592
[1]; first compound 4 µM
  relative viability: 0.841

## NCI-H1915
Mirin + Luminespib; first compound 0.25 µM
  relative viability: 0.776
Mirin + Luminespib; first compound 2.5 µM
  relative viability: 0.783
Mirin + Luminespib; first compound 7.906 µM
  relative viability: 0.676
Mirin + Luminespib; first compound 25 µM
  relative viability: 0.77
Mirin + Pemetrexed; first compound 0.25 µM
  relative viability: 0.469
Mirin + Pemetrexed; first compound 0.7906 µM
  relative viability: 0.484
Mirin + Pemetrexed; first compound 2.5 µM
  relative viability: 0.504
Mirin + Pemetrexed; first compound 7.906 µM
  relative viability: 0.434
Mirin + Pemetrexed; first compound 25 µM
  relative viability: 0.433
Mirin + Crizotinib; first compound 0.25 µM
  relative viability: 0.863
Mirin + Crizotinib; first compound 2.5 µM
  relative viability: 0.87
Mirin + Crizotinib; first compound 7.906 µM
  relative viability: 0.809
Mirin + Crizotinib; first compound 25 µM
  relative viability: 1.03
[1]; first compound 0.04 µM
  relative viability: 1.09
[1]; first compound 0.1265 µM
  relative viability: 0.899
[1]; first compound 0.4 µM
  relative viability: 0.868
[1]; first compound 1.265 µM
  relative viability: 0.93
[1]; first compound 4 µM
  relative viability: 0.86

## NCI-H1944
Mirin + Luminespib; first compound 0.25 µM
  relative viability: 0.679
Mirin + Luminespib; first compound 0.7906 µM
  relative viability: 0.751
Mirin + Luminespib; first compound 2.5 µM
  relative viability: 0.694
Mirin + Luminespib; first compound 7.906 µM
  relative viability: 0.543
Mirin + Luminespib; first compound 25 µM
  relative viability: 0.359
Mirin + Pemetrexed; first compound 0.25 µM
  relative viability: 0.636
Mirin + Pemetrexed; first compound 0.7906 µM
  relative viability: 0.627
Mirin + Pemetrexed; first compound 2.5 µM
  relative viability: 0.598
Mirin + Pemetrexed; first compound 7.906 µM
  relative viability: 0.558
Mirin + Pemetrexed; first compound 25 µM
  relative viability: 0.598
Mirin + Crizotinib; first compound 0.25 µM
  relative viability: 0.971
Mirin + Crizotinib; first compound 2.5 µM
  relative viability: 1.04
Mirin + Crizotinib; first compound 7.906 µM
  relative viability: 1.1
Mirin + Crizotinib; first compound 25 µM
  relative viability: 0.957
[1]; first compound 0.04 µM
  relative viability: 1.15
[1]; first compound 0.1265 µM
  relative viability: 1.11
[1]; first compound 1.265 µM
  relative viability: 1.07
[1]; first compound 4 µM
  relative viability: 1.12

## NCI-H1975
Mirin + Luminespib; first compound 0.25 µM
  relative viability: 0.201
Mirin + Luminespib; first compound 0.7906 µM
  relative viability: 0.254
Mirin + Luminespib; first compound 2.5 µM
  relative viability: 0.16
Mirin + Luminespib; first compound 7.906 µM
  relative viability: 0.306
Mirin + Luminespib; first compound 25 µM
  relative viability: 0.125
Mirin + Pemetrexed; first compound 0.25 µM
  relative viability: 0.324
Mirin + Pemetrexed; first compound 0.7906 µM
  relative viability: 0.256
Mirin + Pemetrexed; first compound 2.5 µM
  relative viability: 0.272
Mirin + Pemetrexed; first compound 7.906 µM
  relative viability: 0.274
Mirin + Pemetrexed; first compound 25 µM
  relative viability: 0.252
Mirin + Crizotinib; first compound 0.25 µM
  relative viability: 0.974
Mirin + Crizotinib; first compound 0.7906 µM
  relative viability: 1.02
Mirin + Crizotinib; first compound 2.5 µM
  relative viability: 0.93
Mirin + Crizotinib; first compound 7.906 µM
  relative viability: 0.954
Mirin + Crizotinib; first compound 25 µM
  relative viability: 0.943
[1]; first compound 0.04 µM
  relative viability: 0.933
[1]; first compound 0.1265 µM
  relative viability: 0.788
[1]; first compound 0.4 µM
  relative viability: 0.864
[1]; first compound 1.265 µM
  relative viability: 0.279
[1]; first compound 4 µM
  relative viability: 0.218
